This is an account of results in paper PMC467104, “Novel NO-TZDs and trimethoxychalcone-based DHPMs: design, synthesis, and biological evaluation as potential VEGFR-2 inhibitors” (Journal of Enzyme Inhibition and Medicinal Chemistry, 2024).

pIC50: −log10 of the molar value.

For the experiment, the target named is T1, VEGFR-2 (Homo sapiens, UniProt P35968).
T1 construct: gene KDR
The experiment in a line: BPS Bioscience KDR kinase assay (Kinase-Glo Max/ADP-Glo luminescence). Type of experiment: biochemical. Background: In Kinase-Glo more light means more ATP remaining.

T1 sequence (P35968 20-1356): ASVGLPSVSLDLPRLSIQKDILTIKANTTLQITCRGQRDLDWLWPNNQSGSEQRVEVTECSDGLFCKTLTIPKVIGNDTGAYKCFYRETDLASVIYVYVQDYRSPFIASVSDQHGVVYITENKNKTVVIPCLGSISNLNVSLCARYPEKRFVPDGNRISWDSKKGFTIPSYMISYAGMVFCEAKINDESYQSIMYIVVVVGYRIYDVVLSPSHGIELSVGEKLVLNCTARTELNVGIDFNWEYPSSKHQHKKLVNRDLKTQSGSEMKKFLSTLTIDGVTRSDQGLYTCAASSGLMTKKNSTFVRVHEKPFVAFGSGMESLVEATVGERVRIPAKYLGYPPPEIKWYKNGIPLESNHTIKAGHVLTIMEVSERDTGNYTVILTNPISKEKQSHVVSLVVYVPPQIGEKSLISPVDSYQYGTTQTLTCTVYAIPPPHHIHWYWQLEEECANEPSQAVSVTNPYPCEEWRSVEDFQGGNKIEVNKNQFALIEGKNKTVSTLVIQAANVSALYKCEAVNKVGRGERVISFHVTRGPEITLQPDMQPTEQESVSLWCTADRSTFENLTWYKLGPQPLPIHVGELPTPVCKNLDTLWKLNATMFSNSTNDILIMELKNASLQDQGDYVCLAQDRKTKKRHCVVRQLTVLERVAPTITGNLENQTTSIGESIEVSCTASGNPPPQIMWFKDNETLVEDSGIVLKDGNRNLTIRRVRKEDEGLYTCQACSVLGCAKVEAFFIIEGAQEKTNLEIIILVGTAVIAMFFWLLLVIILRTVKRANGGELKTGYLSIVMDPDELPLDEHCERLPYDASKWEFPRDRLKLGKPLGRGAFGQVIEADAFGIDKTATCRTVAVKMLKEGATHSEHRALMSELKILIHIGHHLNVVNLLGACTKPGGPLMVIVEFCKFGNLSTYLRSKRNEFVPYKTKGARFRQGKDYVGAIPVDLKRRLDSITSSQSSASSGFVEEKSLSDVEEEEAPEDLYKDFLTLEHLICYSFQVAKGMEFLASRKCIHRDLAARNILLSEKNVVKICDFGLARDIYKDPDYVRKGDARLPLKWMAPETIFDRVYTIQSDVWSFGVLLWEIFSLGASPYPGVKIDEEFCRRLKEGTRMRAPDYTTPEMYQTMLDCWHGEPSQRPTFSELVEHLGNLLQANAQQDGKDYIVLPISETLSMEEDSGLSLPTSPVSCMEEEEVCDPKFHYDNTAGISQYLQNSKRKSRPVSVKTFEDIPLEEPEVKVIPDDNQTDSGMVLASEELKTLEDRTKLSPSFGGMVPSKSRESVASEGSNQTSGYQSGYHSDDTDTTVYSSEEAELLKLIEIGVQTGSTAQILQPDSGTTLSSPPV

For orientation: pIC50 means the negative decadic logarithm of the IC50, by convention in mol/L. `CCOC(=O)C1=C(C)NC(SCC(=O)Nc2ccc(C(=O)/C=C/c3cc(OC)c(OC)c(OC)c3)cc2)=N[C@@H]1c1ccc(O)c(OC)c1` [CDHPM-10e, Ethyl (R,E)-4–(4-hydroxy-3-methoxyphenyl)-6-methyl-2-((2-oxo-2-((4–(3-(3,4,5-trimethoxyphenyl)acryloyl)phenyl)amino)ethyl)thio)-1,4-dihydropyrimidine-5-carboxylate] showed a pIC50 of 6.95.
